Structures are written as SMILES. A value given as a limit tells only on which side of the number the result lay.

This assay concerns rat. Briefly: Conditioned Avoidance Responding in Rat. Type of assay: in vivo, rat (male CDF). The note with it: inhibition of conditioned avoidance responding, oral, tested 30-360 minutes after administration, % of vehicle control, read-out: Peak ED50. The source says:
Conditioned Avoidance Responding in Rat
The procedure utilized is a modification of the procedure of Cook and Weidley (Ann. NY Acad Sci.66: 740-752, 1957).
Apparatus: A Coulbourn Instruments large modular test cage (25×30×30 cm) with a pole suspended from the center of the ceiling and a stainless steel grid floor. A 0.75 mA pulsed current (250 msec on, 750 msec off) is delivered to the grid floor by a Coulbourn Instruments programmable shocker.
Animals: Male CDF rats are purchased from Charles River Breeding Laboratories (Wilmington, Mass.).
Test Procedure: Each trial lasts 25 seconds. Ten seconds after the rat is placed in the testing apparatus, footshock is delivered for 15 seconds. The rat is immediately removed from the testing apparatus. If the rat climbs the pole within the first 10 seconds, footshock is avoided and an avoidance response is recorded. If the rat climbs the pole during the footshock period, an escape response is recorded. If the animal fails to climb the pole during the 25 second trial period, an escape failure is recorded.
Drug testing is initiated after rats are well trained to consistently avoid footshock. Rats are tested for conditioned avoidance responding at various time intervals (30-360 minutes) after oral administration of test compound.
For each dose of test compound, inhibition of conditioned avoidance responding is expressed as a percentage of the corresponding Drug Vehicle (control) value. The percent antagonism is used to calculate ED50 values when appropriate.
The ED50 is the dose that gives a 50% effect, or the effect in half of the subjects. `Cc1cc2c3c(c1)c1c(n3-c3ccc(C(F)(F)F)cc3NC2=O)CCN(C)C1` [Example 3]: the ED50 was in the range of 20 to 50 mg/kg.
The same measure for `Cc1cc2c3c(c1)c1c(n3-c3ccc(Cl)cc3NC2)CCN(C)C1` [Example 23, 11-chloro-1,2,3,4,8,9-hexahydro-3,6-dimethylpyrido[4',3':2,3]indolo[1,7-ab][1,5]benzodiazepine]: not above 20 mg/kg; for `Cc1cc2c3c(c1)c1c(n3-c3ccc(Cl)cc3NC2=O)CCN(C)C1` [Example 1, 11-chloro-1,2,3,4,8,9-hexahydro-3,6-dimethylpyrido[4',3':2,3]indolo[1,7-ab][1,5]benzodiazepin-8(9H)-one]: not above 20 mg/kg; for `Cc1cc2c3c(c1)c1c(n3-c3ccc(C(F)(F)F)cc3NC2)CCN(C)C1` [Example 25]: not above 20 mg/kg.

The record behind these values is US5321023A, “Pyridoindolobenzodiazepines and derivatives as antipsychotics” (The Du Pont Merck Pharmaceutical Co., priority 1992, dated 1994).
